Two compounds from patent US20070117770A1, “Human ribosomal DNA (rDNA) and ribosomal RNA (rRNA) nucleic acids and uses thereof” (Cylene Pharmaceuticals, Inc., priority 2005, published 2007) can be followed below.

One experiment deals with IRAK4(h) (Homo sapiens, UniProt Q9NWZ3). As to the kind of experiment: Protein kinase inhibition assay. Format: biochemical. Conditions: read-out: percent residual activity of IRAK4(h). As for the experimental part:
(§1) Certain compounds were tested for activity in protein kinase inhibition assays. All substrates were dissolved and diluted to working stocks in de-ionized water, apart from histone H1 (10× working stock in 20 mM MOPS pH 7.0), PDKtide (10× working stock in 50 mM Tris pH 7.0) ATF2 (which is typically stored at a 20× working stock in 50 mM Tris pH 7.5, 150 mM NaCl, 0.1 mM EGTA, 0.03% Brij-35, 50% glycerol, 1 mM benzamidine, 0.2 mM PMSF and 0.1% R-mercaptoethanol), KKLNRTLSFAEPG (SEQ ID NO:203) and RRRLSFAEPG (SEQ ID NO:204) (50 mM HEPES pH 7.4) and GGEEEEYFELVKKKK (SEQ ID NO:205) (20 mM MOPS pH 7.0). All kinases were pre-diluted to a 10× working concentration prior to addition into the assay. The composition of the dilution buffer for each kinase is detailed below.
(§2) In a final reaction volume of 25 μl, IRAK4 (h) (5-10 mU) is incubated with 8 mM MOPS pH 7.0, 0.2 mM EDTA, 0.33 mg/ml myelin basic protein, 10 mM MgAcetate and [gamma-33P-ATP] (specific activity approx. 500 cpm/pmol, concentration as required). The reaction is initiated by the addition of the MgATP mix. After incubation for 40 minutes at room temperature, the reaction is stopped by the addition of 5 μl of a 3% phosphoric acid solution. 10 μl of the reaction is then spotted onto a P30 filtermat and washed three times for 5 minutes in 75 mM phosphoric acid and once in methanol prior to drying and scintillation counting.

The target in the next experiment is JNK2α2(h) (Homo sapiens, UniProt P45984). As to the kind of experiment: Protein kinase inhibition assay. Conditions: read-out: percent residual activity of JNK2α2(h). Format: biochemical. Here is the method:
as §1
as §2, with “JNK2α2” for “IRAK4”, “50” for “8”, “Tris” for “MOPS”, “7.5, […], 0.1% R-mercaptoethanol, 3 μM ATF2,” for “7.0, 0.2 mM EDTA, 0.33 mg/ml myelin basic protein,”

Another experiment concerns HCT116 cells. The experiment is described as follows: Protein synthesis (3H-methionine incorporation). Format: cell-based. Conditions: at the tested concentrations. As for the experimental part: Effects of compound A-1 and compound B-1 on DNA synthesis, RNA synthesis and protein synthesis were determined in HCT116 cells. HCT116 cells were plated overnight at 100,000 cells per mL. Next day cells were treated with increasing amounts of either compound A-1 or compound B-1 followed by one hour incubation with BrdU label (from a BrdU Cell proliferation Assay Kit, Calbiochem) to monitor DNA synthesis; […] of ^3H-uridine to monitor total RNA synthesis; […] of ^3H-methionine to monitor protein synthesis or plain media to monitor RNA Polymerase II-dependent RNA synthesis. DNA synthesis was assessed using a BrdU-ELISA (BrdU Cell proliferation Assay Kit, Calbiochem). To measure total RNA synthesis, total RNA from treated cells was isolated with a RNease kit (QIAGEN), levels of total RNA were assessed with Ribogreen reagent (Invitrogen) and the newly synthesized tritiated RNA was measured in a scintillation Counter (Perkin Elmer). To measure effects on protein synthesis, cells were lysed in a RIPA buffer, and total protein was precipitated with 10% TCA on a glass-filters. Newly synthesized tritiated protein was measured in a scintillation Counter (Perkin Elmer). Effects of drugs on […] RNA synthesis were assessed by monitoring levels of a c-myc mRNA, which has a relatively short half-life of approximately 30 minutes, by Taqman qRT-PCR (ABI).

A further experiment concerns the target MAPK2(h) (Homo sapiens, UniProt P28482). The experiment is described as follows: Protein kinase inhibition assay. Format: biochemical. Conditions: read-out: percent residual activity of MAPK2(h). Here is the method: as §1
as §2, with “μl, MAPK2” for “μl, IRAK4”, “with 25” for “with 8”, “mM Tris” for “mM MOPS”, “pH 7.5, 0.02” for “pH 7.0, 0.2”, “mM EGTA,” for “mM EDTA,”, “of […]” for “of 5 μl”

The next experiment deals with SGK(h) (Homo sapiens, UniProt O00141). As to the kind of experiment: Protein kinase inhibition assay. Format: biochemical. Conditions: read-out: percent residual activity of SGK(h). As for the experimental part:
as §1
as §2, with “SGK” for “IRAK4”, “30 μM GRPRTSSFAEGKK (SEQ ID NO:226),” for “0.33 mg/ml myelin basic protein,”

The target of a further experiment is Rse(h) (Homo sapiens, UniProt Q06418). As to the kind of experiment: Protein kinase inhibition assay. As to conditions: read-out: percent residual activity of Rse(h). Format: biochemical. Here is the method:
as §1
In a final reaction volume of 25 μl, Rse (h) (5-10 mU) is incubated with 8 mM MOPS pH 7.0, 0.2 mM EDTA, 250 μM KVEKIGEGTYGVVYK (SEQ ID NO:211), 1 mM MnCl2, 10 mM MgAcetate and [gamma-33P-ATP] (specific activity approx. 500 cpm/pmol, concentration as required). The reaction is initiated by the addition of the MgATP mix. After incubation for 40 minutes at room temperature, the reaction is stopped by the addition of 5 μl of a 3% phosphoric acid solution. […]

SMILES strings stand for the structures.

MAPK2(h), sequence (P28482 whole entry): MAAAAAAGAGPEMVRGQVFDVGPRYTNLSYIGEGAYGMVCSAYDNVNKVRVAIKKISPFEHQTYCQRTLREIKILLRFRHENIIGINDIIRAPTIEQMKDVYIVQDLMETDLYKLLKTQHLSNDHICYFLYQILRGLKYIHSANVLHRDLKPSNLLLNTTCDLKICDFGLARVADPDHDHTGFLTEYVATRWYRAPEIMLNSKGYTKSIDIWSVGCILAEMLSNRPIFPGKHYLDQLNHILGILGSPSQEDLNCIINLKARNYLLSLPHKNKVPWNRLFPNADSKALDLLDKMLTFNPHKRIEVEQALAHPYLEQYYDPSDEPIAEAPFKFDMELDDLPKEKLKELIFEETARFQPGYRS
Rse(h), sequence (Q06418 41-890): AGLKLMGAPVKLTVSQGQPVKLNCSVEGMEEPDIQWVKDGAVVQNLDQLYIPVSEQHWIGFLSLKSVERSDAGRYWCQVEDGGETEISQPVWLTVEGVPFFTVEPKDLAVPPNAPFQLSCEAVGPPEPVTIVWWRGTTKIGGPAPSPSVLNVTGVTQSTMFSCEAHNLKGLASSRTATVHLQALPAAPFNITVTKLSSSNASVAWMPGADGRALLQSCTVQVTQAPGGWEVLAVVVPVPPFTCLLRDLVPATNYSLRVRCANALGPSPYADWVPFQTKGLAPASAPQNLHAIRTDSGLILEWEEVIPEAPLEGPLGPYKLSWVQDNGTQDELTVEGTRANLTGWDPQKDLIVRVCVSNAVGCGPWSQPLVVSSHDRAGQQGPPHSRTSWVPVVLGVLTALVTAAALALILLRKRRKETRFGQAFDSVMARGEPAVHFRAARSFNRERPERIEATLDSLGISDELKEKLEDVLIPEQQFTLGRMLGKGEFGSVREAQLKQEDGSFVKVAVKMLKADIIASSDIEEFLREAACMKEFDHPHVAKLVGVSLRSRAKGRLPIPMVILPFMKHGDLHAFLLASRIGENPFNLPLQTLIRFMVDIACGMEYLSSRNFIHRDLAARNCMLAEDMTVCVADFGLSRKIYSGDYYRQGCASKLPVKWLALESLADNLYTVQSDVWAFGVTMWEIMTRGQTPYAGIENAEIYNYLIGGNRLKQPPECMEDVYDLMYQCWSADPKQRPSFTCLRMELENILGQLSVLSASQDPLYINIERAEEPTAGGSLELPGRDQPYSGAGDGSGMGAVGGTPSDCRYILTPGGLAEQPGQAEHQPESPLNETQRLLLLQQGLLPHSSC
JNK2α2(h), sequence (P45984 whole entry): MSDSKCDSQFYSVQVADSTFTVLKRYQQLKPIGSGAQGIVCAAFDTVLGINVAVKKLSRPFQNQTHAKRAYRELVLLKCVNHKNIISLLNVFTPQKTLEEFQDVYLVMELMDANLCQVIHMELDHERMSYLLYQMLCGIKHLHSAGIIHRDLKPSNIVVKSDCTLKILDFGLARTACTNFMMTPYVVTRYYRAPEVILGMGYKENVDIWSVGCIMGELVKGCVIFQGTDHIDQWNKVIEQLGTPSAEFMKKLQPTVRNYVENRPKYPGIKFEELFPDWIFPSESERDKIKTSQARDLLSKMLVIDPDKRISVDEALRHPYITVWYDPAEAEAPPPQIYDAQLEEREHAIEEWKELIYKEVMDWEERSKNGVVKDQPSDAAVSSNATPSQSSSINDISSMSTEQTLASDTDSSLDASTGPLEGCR
SGK(h), sequence (O00141 whole entry): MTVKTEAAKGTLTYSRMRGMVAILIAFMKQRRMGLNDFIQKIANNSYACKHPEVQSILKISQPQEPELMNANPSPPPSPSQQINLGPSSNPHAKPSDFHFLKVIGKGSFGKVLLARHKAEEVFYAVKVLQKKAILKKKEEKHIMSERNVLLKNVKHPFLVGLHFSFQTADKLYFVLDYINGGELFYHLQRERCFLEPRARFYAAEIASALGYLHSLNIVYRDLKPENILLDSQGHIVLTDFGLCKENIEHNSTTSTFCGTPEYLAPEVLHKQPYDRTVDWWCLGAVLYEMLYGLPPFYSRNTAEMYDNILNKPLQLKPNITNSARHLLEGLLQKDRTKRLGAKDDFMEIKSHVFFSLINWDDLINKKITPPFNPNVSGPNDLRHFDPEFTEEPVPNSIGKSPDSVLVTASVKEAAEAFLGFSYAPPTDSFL
IRAK4(h), sequence (Q9NWZ3 whole entry): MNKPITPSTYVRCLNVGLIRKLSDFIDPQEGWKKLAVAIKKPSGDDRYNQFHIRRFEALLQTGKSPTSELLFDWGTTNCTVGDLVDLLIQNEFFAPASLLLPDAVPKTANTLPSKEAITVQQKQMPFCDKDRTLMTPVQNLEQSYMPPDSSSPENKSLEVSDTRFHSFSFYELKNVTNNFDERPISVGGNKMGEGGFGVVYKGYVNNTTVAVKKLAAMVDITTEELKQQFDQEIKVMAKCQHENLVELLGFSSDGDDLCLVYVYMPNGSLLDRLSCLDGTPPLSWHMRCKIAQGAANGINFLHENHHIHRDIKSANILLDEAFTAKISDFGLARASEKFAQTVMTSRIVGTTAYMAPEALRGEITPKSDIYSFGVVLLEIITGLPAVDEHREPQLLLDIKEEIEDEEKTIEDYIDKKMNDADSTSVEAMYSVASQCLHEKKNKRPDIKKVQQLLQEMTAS

For `CN1CCCC1CCNC(=O)c1cn2c3c(c(N4CCC(c5cnccn5)C4)c(F)cc3c1=O)Oc1cc3ccccc3cc1-2` (stereo not drawn) [Compound A-1], the remaining activity at 2.5 µM at IRAK4(h) was 98%; on JNK2α2(h) it was 101%; at MAPK2(h), 101%; on SGK(h) it was 50%; at Rse(h), 92%. Moreover, in the experiment with HCT116 cells, the “effect on protein synthesis” value is on record as “no measureable effect”.

With `CC(=O)N1CCN(c2ccc3c(=O)c(C(=O)NCCN4CCCC4)c4n(C)c5ccccc5n4c3n2)CC1` [Compound B-1], the remaining activity at 2.5 µM on IRAK4(h) was determined as 107%; at JNK2α2(h) it was 106%; at MAPK2(h) it was 108%; on SGK(h) it was 103%; at Rse(h), 92%. The “effect on protein synthesis” value with HCT116 cells was “no measureable effect”.
